Laboratory results: patent US8445492B2, “Method for inhibiting growth of cancer cells and cell telomere and diseases of cell proliferation by using heteroannelated anthraquinone derivative compounds” (National Defense Medical Center, priority 2008, dated 2013)

Tests used:
Format in all cases: cell-based
MALME-3M = assay: in vitro test at 1.0×10^−5 M, Skin cancer cell; details: 1.0×10^−5 molal concentration (M)
SF-539 = assay: in vitro test at 1.0×10^−5 M, CNS cancer cell; details: 1.0×10^−5 molal concentration (M)
UACC-257 [1] = assay: in vitro test at 1.0×10^−5 M, Skin cancer cell; details: 1.0×10^−5 molal concentration (M)
MDA-MB-435 = assay: in vitro test at 1.0×10^−5 M, Breast cancer cell; details: 1.0×10^−5 molal concentration (M)
MCF7 [2] = assay: in vitro test at 1.0×10^−5 M, Breast cancer cell; details: 1.0×10^−5 molal concentration (M)
UACC-62 = assay: in vitro test at 1.0×10^−5 M, Skin cancer cell; details: 1.0×10^−5 molal concentration (M)
OVCAR-4 = assay: in vitro test at 1.0×10^−5 M, Ovary cancer cell; details: 1.0×10^−5 molal concentration (M)
SK-MEL-28 = assay: NCI DTP in-vitro dose response, Melanoma
U251 = assay: NCI DTP in-vitro dose response, CNS Cancer
OVCAR-8 = assay: NCI DTP in-vitro dose response, Ovarian Cancer
SK-MEL-2 = assay: NCI DTP in-vitro dose response, Melanoma
MDA-MB-231/ATCC = assay: NCI DTP in-vitro dose response, Breast Cancer
SNB-75 = assay: NCI DTP in-vitro dose response, CNS Cancer
MCF7 [3] = assay: NCI DTP in-vitro dose response, Breast Cancer
SR = assay: NCI DTP in-vitro dose response, Leukemia
SK-OV-3 = assay: NCI DTP in-vitro dose response, Ovarian Cancer
COLO 205 = assay: NCI DTP in-vitro dose response, Colon Cancer
UACC-257 [4] = assay: NCI DTP in-vitro dose response, Melanoma
NCI/ADR-RES = assay: NCI DTP in-vitro dose response, Breast Cancer
OVCAR-3 = assay: NCI DTP in-vitro dose response, Ovarian Cancer

CCc1nc2ccc3c(c2[nH]1)C(=O)c1ccccc1C3=O [No. 4, 2-Ethyl-1(3)H-anthra[1,2-d]imidazole-6,11-dione]
inhibition effect on cancer cell line (Table 2 value) (MALME-3M): 56.94
inhibition effect on cancer cell line (Table 2 value) (SF-539): 83.16
inhibition effect on cancer cell line (Table 2 value) (UACC-257 [1]): 39.69
inhibition effect on cancer cell line (Table 2 value) (MDA-MB-435): 84.39
inhibition effect on cancer cell line (Table 2 value) (MCF7 [2]): 69.82
inhibition effect on cancer cell line (Table 2 value) (UACC-62): 51.35
inhibition effect on cancer cell line (Table 2 value) (OVCAR-4): 48.81

O=C1c2ccccc2C(=O)c2c1ccc1nsnc21 [No. 22, Anthra[2,1-c][1,2,5]thiadiazole-6,11-dione]
GI50 (SK-MEL-28; Homo sapiens, SK-MEL-28): 9.88 µM
CC50 (SK-MEL-28; Homo sapiens, SK-MEL-28, read-out: LC50): 50.3 µM
Percent Growth (SK-MEL-28; Log10 Concentration −4.0): −93%
Percent Growth (SK-MEL-28; Log10 Concentration −5.0): 50%
Percent Growth (SK-MEL-28; Log10 Concentration −6.0): 107%
Percent Growth (SK-MEL-28; Log10 Concentration −7.0): 106%
Percent Growth (SK-MEL-28; Log10 Concentration −8.0): 103%
TGI (SK-MEL-28; SK-MEL-28): 2.24E−5
GI50 (U251; Homo sapiens, U-251): 1600 nM
CC50 (U251; Homo sapiens, U-251, read-out: LC50): 8.32 µM
Percent Growth (U251; Log10 Concentration −4.0): −63%
Percent Growth (U251; Log10 Concentration −5.0): −61%
Percent Growth (U251; Log10 Concentration −6.0): 78%
Percent Growth (U251; Log10 Concentration −7.0): 104%
Percent Growth (U251; Log10 Concentration −8.0): 106%
TGI (U251; U251): 3.65E−6
GI50 (OVCAR-8; Homo sapiens, OVCAR-8): 859 nM
CC50 (OVCAR-8; Homo sapiens, OVCAR-8, read-out: LC50): > 100 µM
Percent Growth (OVCAR-8; Log10 Concentration −4.0): −38%
Percent Growth (OVCAR-8; Log10 Concentration −5.0): −43%
Percent Growth (OVCAR-8; Log10 Concentration −6.0): 46%
Percent Growth (OVCAR-8; Log10 Concentration −7.0): 102%
Percent Growth (OVCAR-8; Log10 Concentration −8.0): 105%
TGI (OVCAR-8; OVCAR-8): 3.28E−6
GI50 (SK-MEL-2; Homo sapiens, SK-MEL-2): 2380 nM
CC50 (SK-MEL-2; Homo sapiens, SK-MEL-2, read-out: LC50): > 100 µM
Percent Growth (SK-MEL-2; Log10 Concentration −4.0): −32%
Percent Growth (SK-MEL-2; Log10 Concentration −5.0): −22%
Percent Growth (SK-MEL-2; Log10 Concentration −6.0): 94%
Percent Growth (SK-MEL-2; Log10 Concentration −7.0): 109%
Percent Growth (SK-MEL-2; Log10 Concentration −8.0): 110%
TGI (SK-MEL-2; SK-MEL-2): 6.42E−6
GI50 (MDA-MB-231/ATCC; Homo sapiens, MDA-MB-231): 2560 nM
CC50 (MDA-MB-231/ATCC; Homo sapiens, MDA-MB-231, read-out: LC50): > 100 µM
Percent Growth (MDA-MB-231/ATCC; Log10 Concentration −4.0): 6%
Percent Growth (MDA-MB-231/ATCC; Log10 Concentration −5.0): 4%
Percent Growth (MDA-MB-231/ATCC; Log10 Concentration −6.0): 81%
Percent Growth (MDA-MB-231/ATCC; Log10 Concentration −7.0): 87%
Percent Growth (MDA-MB-231/ATCC; Log10 Concentration −8.0): 104%
TGI (MDA-MB-231/ATCC; MDA-MB-231/ATCC): >1.00E−4
GI50 (SNB-75; Homo sapiens, SNB-75): 1420 nM
CC50 (SNB-75; Homo sapiens, SNB-75, read-out: LC50): 5.22 µM
Percent Growth (SNB-75; Log10 Concentration −4.0): −100%
Percent Growth (SNB-75; Log10 Concentration −5.0): −100%
Percent Growth (SNB-75; Log10 Concentration −6.0): 77%
Percent Growth (SNB-75; Log10 Concentration −7.0): 66%
Percent Growth (SNB-75; Log10 Concentration −8.0): 76%
TGI (SNB-75; SNB-75): 2.73E−6
GI50 (MCF7 [3]; Homo sapiens, MCF7): 1240 nM
CC50 (MCF7 [3]; Homo sapiens, MCF7, read-out: LC50): 7.72 µM
Percent Growth (MCF7 [3]; Log10 Concentration −4.0): −63%
Percent Growth (MCF7 [3]; Log10 Concentration −5.0): −64%
Percent Growth (MCF7 [3]; Log10 Concentration −6.0): 62%
Percent Growth (MCF7 [3]; Log10 Concentration −7.0): 77%
Percent Growth (MCF7 [3]; Log10 Concentration −8.0): 88%
TGI (MCF7 [3]; MCF7): 3.10E−6
GI50 (SR; Homo sapiens, SR): 6.89 µM
CC50 (SR; Homo sapiens, SR, read-out: LC50): > 100 µM
Percent Growth (SR; Log10 Concentration −4.0): −22%
Percent Growth (SR; Log10 Concentration −5.0): 41%
Percent Growth (SR; Log10 Concentration −6.0): 99%
Percent Growth (SR; Log10 Concentration −7.0): 112%
Percent Growth (SR; Log10 Concentration −8.0): 108%
TGI (SR; SR): >1.00E−4
GI50 (SK-OV-3; Homo sapiens, SK-OV-3): 2260 nM
CC50 (SK-OV-3; Homo sapiens, SK-OV-3, read-out: LC50): 23.6 µM
Percent Growth (SK-OV-3; Log10 Concentration −4.0): −97%
Percent Growth (SK-OV-3; Log10 Concentration −5.0): −22%
Percent Growth (SK-OV-3; Log10 Concentration −6.0): 89%
Percent Growth (SK-OV-3; Log10 Concentration −7.0): 90%
Percent Growth (SK-OV-3; Log10 Concentration −8.0): 102%
TGI (SK-OV-3; SK-OV-3): 6.35E−6
TGI (COLO 205; COLO 205): 3.98E−6
GI50 (COLO 205; Homo sapiens, COLO 205): 1970 nM
CC50 (COLO 205; Homo sapiens, COLO 205, read-out: LC50): 8.04 µM
Percent Growth (COLO 205; Log10 Concentration −4.0): −71%
Percent Growth (COLO 205; Log10 Concentration −5.0): −66%
Percent Growth (COLO 205; Log10 Concentration −6.0): 98%
Percent Growth (COLO 205; Log10 Concentration −7.0): 87%
Percent Growth (COLO 205; Log10 Concentration −8.0): 95%
GI50 (UACC-257 [4]; Homo sapiens, UACC-257): 1480 nM
CC50 (UACC-257 [4]; Homo sapiens, UACC-257, read-out: LC50): 6.21 µM
Percent Growth (UACC-257 [4]; Log10 Concentration −4.0): −91%
Percent Growth (UACC-257 [4]; Log10 Concentration −5.0): −83%
Percent Growth (UACC-257 [4]; Log10 Concentration −6.0): 77%
Percent Growth (UACC-257 [4]; Log10 Concentration −7.0): 101%
Percent Growth (UACC-257 [4]; Log10 Concentration −8.0): 96%
TGI (UACC-257 [4]; UACC-257): 3.03E−6
GI50 (NCI/ADR-RES; Homo sapiens, NCI/ADR-RES): 432 nM
CC50 (NCI/ADR-RES; Homo sapiens, NCI/ADR-RES, read-out: LC50): > 100 µM
Percent Growth (NCI/ADR-RES; Log10 Concentration −4.0): −17%
Percent Growth (NCI/ADR-RES; Log10 Concentration −5.0): −10%
Percent Growth (NCI/ADR-RES; Log10 Concentration −6.0): 20%
Percent Growth (NCI/ADR-RES; Log10 Concentration −7.0): 102%
Percent Growth (NCI/ADR-RES; Log10 Concentration −8.0): 107%
TGI (NCI/ADR-RES; NCI/ADR-RES): 4.80E−6
GI50 (OVCAR-3; Homo sapiens, OVCAR-3): 2060 nM
CC50 (OVCAR-3; Homo sapiens, OVCAR-3, read-out: LC50): 28.2 µM
Percent Growth (OVCAR-3; Log10 Concentration −4.0): −75%
Percent Growth (OVCAR-3; Log10 Concentration −5.0): −29%
Percent Growth (OVCAR-3; Log10 Concentration −6.0): 86%
Percent Growth (OVCAR-3; Log10 Concentration −7.0): 110%
Percent Growth (OVCAR-3; Log10 Concentration −8.0): 116%
TGI (OVCAR-3; OVCAR-3): 5.59E−6
